Reference: article PMC12516686, “Design of 2‑Aminobenzothiazole Derivatives Targeting Trypanosomatid PTR1 by a Multidisciplinary Fragment Hybridization Approach” (Journal of Medicinal Chemistry, 2025)
“And” between values parts separate entries of the source, which are not always exact repeats. Equal entries are not always repeated. Where two headings read alike, the source gives them in different places.

What was measured:
CYP1A2 = target: T1, CYP1A2 (Homo sapiens, UniProt P05177); assay: Cytochrome P450 assay (P450-Glo), isoform 1A2; format: in vitro ADME
T1 construct: purchased Promega; host or cells: baculovirus-infected insect cells
T1 sequence (P05177 1-516): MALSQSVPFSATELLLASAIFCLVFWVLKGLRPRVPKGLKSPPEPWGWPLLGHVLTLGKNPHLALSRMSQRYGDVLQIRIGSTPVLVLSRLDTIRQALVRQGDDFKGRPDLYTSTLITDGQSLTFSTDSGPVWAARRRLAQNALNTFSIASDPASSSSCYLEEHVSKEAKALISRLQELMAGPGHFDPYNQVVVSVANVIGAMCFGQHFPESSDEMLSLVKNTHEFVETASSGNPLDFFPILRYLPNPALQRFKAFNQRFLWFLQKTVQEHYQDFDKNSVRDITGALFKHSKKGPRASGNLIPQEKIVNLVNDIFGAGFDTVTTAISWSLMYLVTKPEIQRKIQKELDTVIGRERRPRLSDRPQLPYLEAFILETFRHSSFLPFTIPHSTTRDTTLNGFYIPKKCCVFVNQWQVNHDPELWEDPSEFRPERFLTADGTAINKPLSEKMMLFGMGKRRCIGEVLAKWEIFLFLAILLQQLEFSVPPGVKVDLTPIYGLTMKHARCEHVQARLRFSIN
Source text: (§1) 3A4. The Promega P450-Glo assay platform was used with microsomal preparations of
(§2) cytochrome P450s from baculovirus-infected insect cells. […]

LmPTR1 = target: T2, LmPTR1 (Leishmania major, UniProt Q01782); assay: LmPTR1 indirect (cytochrome c-coupled) enzyme assay; format: biochemical; settings: for IC50: indirect assay, triplicate, SD within ± 10% of the value
T2 sequence (Q01782 1-288): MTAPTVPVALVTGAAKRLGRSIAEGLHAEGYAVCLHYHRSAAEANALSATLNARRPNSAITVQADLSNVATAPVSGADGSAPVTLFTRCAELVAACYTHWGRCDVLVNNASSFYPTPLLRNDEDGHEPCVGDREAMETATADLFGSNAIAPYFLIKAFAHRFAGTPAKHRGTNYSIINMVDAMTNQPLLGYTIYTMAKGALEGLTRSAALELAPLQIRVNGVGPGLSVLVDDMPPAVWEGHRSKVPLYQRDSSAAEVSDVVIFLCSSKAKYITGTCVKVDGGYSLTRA
Method: The in vitro assays used in the current study were based on those reported in the literature. As PTR1 enzymes use dihydrobiopterin (H2B) as a substrate and also require NADPH for the reaction, the reduction of H2B to tetrahydrobiopterin by PTR1 is nonenzymatically linked with the reduction of cytochrome c in this assay, which is detected at 550 nm. The formation of cyt c Fe^2+ results in an increase in the photometric readout. TbPTR1 and LmPTR1 activity was assayed in a buffer containing 20 mM sodium citrate (pH 6.0). The final reaction mixture contained the test compound at a range of concentrations and TbPTR1/LmPTR1 (6.0 nM/12 nM), H2B (0.3 μM/3 μM), cytochrome c (100 μM/100 μM), and NADPH (500 μM/500 μM). The final assay volume was 50 μL in 384-well clear plates (Greiner Bio-One, 781101). Compound screening was performed by the addition of the compound to the assay plates (in 100% DMSO), followed by the addition of 45 μL Reaction Mix (enzyme, H2B cytochrome c in 20 mM sodium citrate buffer). A pre-read was made at 550 nm using an EnVision Multilabel Reader 2103 (PerkinElmer Inc., US), followed by incubation of the assay plates at 30 °C for 10 min. The reaction was initiated by the addition of 5 μL of NADPH (5 mM in ultrapure water) followed by kinetically reading the assay plates at 550 nm using the EnVision Multilabel Reader at 10, 20, 30, 40, and 50 min. The slope of each assay well was calculated. The screening data were analyzed using ActivityBase (IDBS), and for outlier elimination in the control wells, the 3-σ method was applied. Based on the slope, the data were normalized to the positive control methotrexate for TbPTR1/LmPTR1 (1 μM/50 μM, yielding 100% inhibition) and negative controls (1% DMSO, yielding 0% inhibition), and % inhibition was calculated for all samples. The measurement at time 0 min was used to flag optically interfering samples. Each compound was tested in triplicate, and the pIC50 value, standard deviation, Hill slope, and minimum and maximum signals for each dose–response curve were obtained using a 4-parameter logistic fit in the XE module of Activity Base (IDBS), as also reported previously. ,

CYP3A4 = target: T3, CYP3A4 (Homo sapiens, UniProt P08684); assay: Cytochrome P450 assay (P450-Glo), isoform 3A4; format: in vitro ADME
T3 construct: purchased Promega; host or cells: baculovirus-infected insect cells
Source text: as §1, §2

786-O cell line = assay: Mitochondrial toxicity (MitoTracker Red uptake, high content imaging); format: cell-based; settings: for IC50: read-out: mitotox. IC50
Source text: Mitochondrial toxicity caused by the synthesized compounds. Uptake of Mito-
Tracker Red (chloromethyl-X-rosamine) to the 786-O cell line was detected with high content
imaging. […]

T3 sequence (P08684 whole entry, canonical isoform): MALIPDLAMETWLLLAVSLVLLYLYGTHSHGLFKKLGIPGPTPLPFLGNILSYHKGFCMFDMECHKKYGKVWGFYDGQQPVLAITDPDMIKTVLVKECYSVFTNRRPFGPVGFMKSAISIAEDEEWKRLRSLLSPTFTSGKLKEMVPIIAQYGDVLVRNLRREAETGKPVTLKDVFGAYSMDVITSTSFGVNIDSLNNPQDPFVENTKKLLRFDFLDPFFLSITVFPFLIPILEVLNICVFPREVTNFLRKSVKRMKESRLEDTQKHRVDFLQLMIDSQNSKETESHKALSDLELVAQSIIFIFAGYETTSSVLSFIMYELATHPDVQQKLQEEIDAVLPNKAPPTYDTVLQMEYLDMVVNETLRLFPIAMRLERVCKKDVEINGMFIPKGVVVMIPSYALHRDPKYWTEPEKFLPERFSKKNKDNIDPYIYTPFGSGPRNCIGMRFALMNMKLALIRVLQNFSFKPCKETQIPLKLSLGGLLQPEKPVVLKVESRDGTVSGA

| SMILES | CYP 1A2 IC50 (CYP1A2) | inhibition at 50 µM (LmPTR1) | IC50 (CYP3A4; read-out: CYP 3A4 IC50) | IC50 (786-O cell line; Homo sapiens, 786-0) | IC50 (LmPTR1) | IC50 (CYP1A2) | activity at 10 µM (CYP1A2; human, at 10 µM compound concentration, read-out: CYP 1A2 % residual activity) | activity at 10 µM (CYP3A4; human, at 10 µM compound concentration, read-out: CYP 3A4 % residual activity) | activity at 10 µM (786-O cell line; Homo sapiens, 786-0, at 10 µM compound concentration, read-out: mitotox. % residual activity) | mitotox. IC50 (786-O cell line) | IC50 (CYP3A4) | CYP 3A4 IC50 (CYP3A4) |
| --- | --- | --- | --- | --- | --- | --- | --- | --- | --- | --- | --- | --- |
| Nc1nc2ccc(C(=O)NCCc3ccc(Cl)c(Cl)c3)cc2s1 [Compound 1a, 2-amino-N-(3,4-dichlorophenethyl)benzo[d]thiazole-6-carboxamide] | max | 21 ± 2% | 1 µM | 27.9 µM | – | – | – | – | – | – | – | – |
| Nc1nc2ccc(C(=O)N(CCc3ccc(Cl)c(Cl)c3)C3CC3)cc2s1 [Compound 1b, 2-amino-N-cyclopropyl-N-(3,4-dichlorophenethyl)benzo[d]thiazole-6-carboxamide] | max | 72 ± 4% | 0.7 µM | 0.6 µM | 39 µM and 38.9 µM | – | – | – | – | – | – | – |
| Nc1nc2ccc(C(=O)N(Cc3ccc(Cl)c(Cl)c3)C3CC3)cc2s1 [Compound 1c, 2-amino-N-cyclopropyl-N-(3,4-dichlorobenzyl)benzo[d]thiazole-6-carboxamide] | max | 26 ± 5% | 1.3 µM | 3.8 µM | – | – | – | – | – | – | – | – |
| Nc1nc2ccc(CN(Cc3ccc(Cl)c(Cl)c3)C3CC3)cc2s1 [Compound 1d, 6-((cyclopropyl(3,4-dichlorobenzyl)amino)methyl)benzo[_d_]thiazol-2-amine] | – | 38 ± 4% | 4 µM | 1.5 µM | – | 67.1 µM | – | – | – | – | – | – |
| Nc1nc2ccc(C(=O)N(CCc3ccc(Cl)c(Cl)c3)c3ccccc3)cc2s1 [Compound 1e, 2-amino-N-(3,4-dichlorophenethyl)-N-phenylbenzo[d]thiazole-6-carboxamide] | – | 31 ± 2% | – | – | – | – | 37.7% | 26.3% | -33.8% | – | – | – |
| Nc1nc2ccc(C(=O)NCCc3ccccc3)cc2s1 [Compound 2a, 2-amino-N-phenethylbenzo[d]thiazole-6-carboxamide] | – | 35 ± 1% | 19.9 µM | – | – | 100 µM | – | – | – | max | – | – |
| Nc1nc2ccc(C(=O)NCCc3cccc(Cl)c3)cc2s1 [Compound 2b, 2-amino-N-(3-chlorophenethyl)benzo[d]thiazole-6-carboxamide] | max | 48 ± 2% | – | – | 91.4 µM | – | – | – | – | max | 6.5 µM | – |
| Nc1nc2ccc(C(=O)NCCc3ccc(Cl)cc3)cc2s1 [Compound 2c, 2-amino-N-(4-chlorophenethyl)benzo[d]thiazole-6-carboxamide] | max | 32 ± 2% | – | 40 µM | – | – | – | – | – | – | – | max |
| Nc1nc2ccc(C(=O)NCCc3cccc(Br)c3)cc2s1 [Compound 2d, 2-amino-N-(3-bromophenethyl)benzo[d]thiazole-6-carboxamide] | max | 57 ± 2% | 5.4 µM | – | – | – | – | – | – | max | – | – |
| Nc1nc2ccc(C(=O)NCCc3ccc(Br)cc3)cc2s1 [Compound 2e, 2-amino-N-(4-bromophenethyl)benzo[d]thiazole-6-carboxamide] | max | 33 ± 1% | 4.7 µM | 0.2 µM | 78.8 µM | – | – | – | – | mitotoxic | – | – |
| Nc1nc2ccccc2n1Cc1ccc(Cl)c(Cl)c1 [I, 1-(3,4-dichlorobenzyl)-1H-benzimidazol-2-amine, reference compound] | – | 75 ± 1% | 3.1 µM | 38.6 µM | – | 29.9 µM | – | – | – | – | – | – |
